Test results from US12410113B2, “Sandalwood-type fragrance compounds” (SYMRISE AG, priority 2019, dated 2025).

Test: Odor detection threshold (ODT) by olfactometer TO8 and a panel of experts according to EN 13725
Settings: for ODT (exp.) (−log): odor detection threshold as −log; for ODT (exp.) / ODT* (exp.) (ppm (v/v)): odor detection threshold, olfactometer TO8, expert panel, EN 13725
Experimental: The ODT was measured by an olfactometer TO8 and a panel of experts according to standard EN 13725.

| SMILES | ODT (exp.) (−log) | ODT (exp.) [ng/L] | ODT* (exp.) (ppm (v/v)) | factor by which threshold value is lower than Brahmanol (in comparison with Brahmanol) |
| --- | --- | --- | --- | --- |
| CC1=CCC(CCC(C)CO)C1(C)C (stereo not shown) [Brahmanol, 2-methyl-4-(2′,2′,3′-trimethyl-3′-cyclopenten-1′-yl)-butan-1-ol, reference compound] | 6.85E+00 | 141.22 | 1.73E−02 ppm (v/v) | – |
| C=C(CO)CCC1CC=C(C)C1(C)C (stereo not shown) [Compound A, 2-methylene-4-(2,2,3-trimethylcyclopent-3-en-1-yl)butan-1-ol] | 8.36E+00 | 4.34 | 5.37E−04 ppm (v/v) | about 35 |
